pEC50, pIC50: −log10 of the molar value.
Tests used:
[1] = biological target: T1, ULK1 kinase (Homo sapiens, UniProt O75385); experiment: Radiometric HotSpot kinase assay (Reaction Biology); assay type: biochemical; conditions: activity-based ULK1 kinase assay
T1 construct: purchased Reaction Biology
T1 sequence (O75385 1-1050): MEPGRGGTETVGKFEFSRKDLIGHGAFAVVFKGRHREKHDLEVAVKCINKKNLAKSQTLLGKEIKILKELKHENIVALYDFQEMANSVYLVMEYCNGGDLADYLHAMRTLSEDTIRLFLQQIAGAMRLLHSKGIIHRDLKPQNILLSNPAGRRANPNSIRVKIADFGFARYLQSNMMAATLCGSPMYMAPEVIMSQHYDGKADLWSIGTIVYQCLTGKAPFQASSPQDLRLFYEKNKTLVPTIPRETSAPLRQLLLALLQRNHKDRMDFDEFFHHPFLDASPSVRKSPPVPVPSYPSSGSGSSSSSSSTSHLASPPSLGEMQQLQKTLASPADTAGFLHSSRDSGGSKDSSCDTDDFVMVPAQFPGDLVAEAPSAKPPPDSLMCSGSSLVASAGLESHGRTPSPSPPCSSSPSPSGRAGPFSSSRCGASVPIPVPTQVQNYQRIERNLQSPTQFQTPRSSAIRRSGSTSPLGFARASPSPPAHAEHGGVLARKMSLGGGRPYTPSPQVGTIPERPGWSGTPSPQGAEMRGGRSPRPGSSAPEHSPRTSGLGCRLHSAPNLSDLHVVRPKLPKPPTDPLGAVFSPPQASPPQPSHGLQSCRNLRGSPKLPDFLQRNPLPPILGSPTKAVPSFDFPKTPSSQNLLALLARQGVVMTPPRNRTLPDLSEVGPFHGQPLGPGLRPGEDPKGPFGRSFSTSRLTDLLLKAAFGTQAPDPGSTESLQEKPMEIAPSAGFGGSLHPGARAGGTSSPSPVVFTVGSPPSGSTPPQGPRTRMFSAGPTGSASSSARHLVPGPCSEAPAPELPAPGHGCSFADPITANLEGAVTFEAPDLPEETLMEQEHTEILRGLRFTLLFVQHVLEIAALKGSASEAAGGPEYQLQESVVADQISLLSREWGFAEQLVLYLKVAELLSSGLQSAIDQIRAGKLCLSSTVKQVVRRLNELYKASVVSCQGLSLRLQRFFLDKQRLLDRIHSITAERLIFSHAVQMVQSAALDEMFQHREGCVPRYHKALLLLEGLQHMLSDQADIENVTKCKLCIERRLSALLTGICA

[2] = biological target: T2, GST-ULK1 (Homo sapiens, UniProt O75385); experiment: LanthaScreen ULK1 inhibitor assay; assay type: biochemical; conditions: 5 nM GST-ULK1, 30 nM tracer, 20 μM ATP, 1 hr room temperature
T2 sequence (O75385 1-1050): T1 sequence (O75385 1-1050)

[3] = biological target: T3, ULK1-nanoluc (Homo sapiens, UniProt O75385); experiment: NanoBRET target engagement in live cells; assay type: cell-based; conditions: H2030 cells transfected with ULK1-nanoluc, Tracer K10, 2 hr
T3 construct: host or cells: H2030 cells (ATCC)
T3 sequence (O75385 1-1050): T1 sequence (O75385 1-1050)

[4] = biological target: T4, ULK1 kinase domain (Homo sapiens, UniProt O75385); experiment: Differential scanning fluorimetry (thermal shift); assay type: binding; conditions: 2 μM ULK1 kinase domain, 50 μM compound, vs DMSO reference
T4 construct: The protein expression construct of ULK1 kinase domain (1-283) was cloned; 6His-Sumo (N, cleaved yes); made in house; host or cells: E. coli BL21 star, co-expressed with lambda phosphatase
T4 sequence (O75385 1-283): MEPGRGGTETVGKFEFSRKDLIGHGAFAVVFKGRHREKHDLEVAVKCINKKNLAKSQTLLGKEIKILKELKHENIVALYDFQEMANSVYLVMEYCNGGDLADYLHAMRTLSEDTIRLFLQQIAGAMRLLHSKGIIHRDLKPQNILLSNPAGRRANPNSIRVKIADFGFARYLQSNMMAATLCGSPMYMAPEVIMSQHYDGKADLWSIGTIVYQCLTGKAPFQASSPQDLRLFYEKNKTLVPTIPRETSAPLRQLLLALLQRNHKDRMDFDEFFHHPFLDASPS

O=C(NCC(O)C(F)(F)F)c1nc(-c2cnc3[nH]c(-c4ccc(F)cc4)cc3c2)cs1 (stereo not shown) [Compound 65, 4-(2-(4-Fluorophenyl)-1H-pyrrolo[2,3-b]pyridin-5-yl)-N-(3,3,3-trifluoro-2-hydroxy-propyl)thiazole-2-carboxamide]
IC50 [1]: 29 nM
pIC50 [2]: 7.77
pEC50 [3]: 6.91
ΔTm at 50 µM [4]: 7.12 °C

FC(F)(F)c1cnc2[nH]c(C3=CCOCC3)cc2c1NCCN1CCOCC1 [Compound 89, 2-(3,6-dihydro-2H-pyran-4-yl)-N-(2-morpholinoethyl)-5-(trifluoromethyl)-1H-pyrrolo[2,3-b]pyridin-4-amine]
IC50 [1]: 37 nM
pIC50 [2]: 7.04
pEC50 [3]: 5.94
ΔTm at 50 µM [4]: 8.13 °C

C[C@@H](CO)NC(=O)c1cc(-c2cnc3[nH]c(C4=CCNC4)cc3c2)cs1 [Compound 104]
pIC50 [2]: 7.54
pEC50 [3]: 5.37

C[C@@H](CO)NC(=O)c1nc(-c2cnc3[nH]c(-c4ccc(F)cc4)cc3c2)cs1 [Compound 76, (S)-4-(2-(4-fluorophenyl)-1H-pyrrolo[2,3-b]pyridin-5-yl)-N-(1-hydroxypropan-2-yl)thiazole-2-carboxamide]
IC50 [1]: 44 nM
pIC50 [2]: 7.60
pEC50 [3]: 6.27
ΔTm at 50 µM [4]: 7.56 °C

CC[C@@H](CO)NC(=O)c1nc(-c2cnc3[nH]c(-c4ccc(F)cc4)cc3c2)cs1 [Compound 61, (S)-4-(2-(4-Fluorophenyl)-1H-pyrrolo[2,3-b]pyridin-5-yl)-N-(1-hydroxybutan-2-yl)-thiazole-2-carboxamide]
IC50 [1]: 8 nM
pIC50 [2]: 8.15
pEC50 [3]: 6.88
ΔTm at 50 µM [4]: 9.31 °C

C[C@@H](CO)NC(=O)c1cc(-c2cnc3[nH]c(C4=CCNCC4)cc3c2)cs1 [Compound 106]
pIC50 [2]: 7.80
pEC50 [3]: 5.95

O=C(NCCF)c1nc(-c2cnc3[nH]c(-c4ccc(F)cc4)cc3c2)cs1 [Compound 78, N-(2-fluoroethyl)-4-(2-(4-fluoro-phenyl)-1H-pyrrolo[2,3-b]pyridin-5-yl)thiazole-2-carboxamide]
IC50 [1]: 20 nM
pIC50 [2]: 7.57
pEC50 [3]: 6.55
ΔTm at 50 µM [4]: 4.83 °C

O=C(NC[C@H](O)CO)c1cccc(-c2cnc3[nH]c(-c4ccc(F)cc4)cc3c2)n1 [Compound 58, (S)—N-(2,3-Dihydroxypropyl)-6-(2-(4-fluorophenyl)-1H-pyrrolo[2,3-b]pyridin-5-yl)-picolinamide]
IC50 [1]: 22 nM
pIC50 [2]: 7.17
pEC50 [3]: 5.63
ΔTm at 50 µM [4]: 9.22 °C

O=C(NCC(F)F)c1nc(-c2cnc3[nH]c(-c4ccc(F)cc4)cc3c2)cs1 [Compound 79, N-(2,2-difluoroethyl)-4-(2-(4-fluorophenyl)-1H-pyrrolo[2,3-b]-pyridin-5-yl)thiazole-2-carboxamide]
IC50 [1]: 12 nM
pIC50 [2]: 7.80
pEC50 [3]: 6.81
ΔTm at 50 µM [4]: 5.45 °C

O=C(NCC1CC1)c1nc(-c2cnc3[nH]c(-c4ccc(F)cc4)cc3c2)cs1 [Compound 71, N-(cyclopropylmethyl)-4-(2-(4-fluorophenyl)-1H-pyrrolo[2,3-b]-pyridin-5-yl)thiazole-2-carboxamide]
IC50 [1]: 14 nM
pIC50 [2]: 7.41
pEC50 [3]: 6.38
ΔTm at 50 µM [4]: 3.73 °C

CN1CC=C(c2cc3c(NC4CCNC4)c(C(F)(F)F)cnc3[nH]2)CC1 (stereo not shown) [Compound 98, 2-(1-methyl-1,2,3,6-tetrahydropyridin-4-yl)-N-(pyrrolidin-3-yl)-5-(trifluoromethyl)-1H-pyrrolo[2,3-b]pyridin-4-amine]
IC50 [1]: 144 nM
pIC50 [2]: 7.24
pEC50 [3]: 6.74
ΔTm at 50 µM [4]: 10.3 °C

C[C@@H](CO)NC(=O)c1cc(-c2cnc3[nH]c(C4=CCCNC4)cc3c2)cs1 [Compound 102]
pIC50 [2]: 7.82
pEC50 [3]: 6.02

FC1(F)CN(c2c(C(F)(F)F)cnc3[nH]c(C4=CCNC4)cc23)C1 [Compound 140]
pIC50 [2]: 9.00
pEC50 [3]: 7.07

C[C@H](CO)NC(=O)c1cc(-c2cnc3[nH]c(C4=CCCNC4)cc3c2)cs1 [Compound 103]
pIC50 [2]: 7.44
pEC50 [3]: 5.86

— patent publication US20250042895A1, “INHIBITORS OF ULK1 AND METHODS OF USE” (H. LEE MOFFITT CANCER CENTER AND RESEARCH INSTITUTE, INC., priority 2021, published 2025)
